# What was measured:
# survivin = experiment: qRT-PCR for survivin in xenograft tumor tissues; format: in vivo, mice; conditions: 2 mg/kg vs saline
# Method: Column represents mean and error bars represent standard deviation. Experiment was done in triplicate (Mean±SEM).
# RNA was extracted from cell lysates using Trizol reagent (Invitrogen) and cDNA was synthesized using SuperScript III First Strand Synthesis (Invitrogen). Quantitative real-time PCR for survivin was performed on cDNA using the SYBR green method (based on manufacturer's protocol, Applied Biosystems). […] The relative change in expression was calculated using the Pffal method (Pfaffl, A new mathematical model for relative quantification in real-time RT-PCR. Nucleic Acids Research 29, e45 (May 1, 2001)). Experiments were repeated six times (2 biological repeats with 3 technical replicates each).
# [1] = tested on: human MKL-1 MCC xenografts
# Method: Compounds were dissolved in sterile 0.9% saline solution for administration to animals.
# Six-week-old female triple immune-deficient NSG (Nod-SCID gamma) mice (Jackson Laboratory) were maintained in a specific pathogen-free environment.
# MCC cells were checked for viability >90% by trypan blue staining, resuspended in PBS (2×10^7 cells in 100 μl) and inoculated subcutaneously into the right flank of mice.
# All treatments were delivered for three consecutive weeks. […] YM-155 (2 mg/kg) was given intraperitoneally on five consecutive days, followed by a two-day treatment free interval.
# Two-tailed paired Student's t test was used to analyze statistical differences in qRT-PCR results. Mouse survival curves were estimated using the Kaplan-Meier product-limit method and were compared using the log-rank test (GraphPad Software, La Jolla, Calif.). A piecewise linear hierarchical Bayesian model (Zhao et al., Bayesian hierarchical changepoint methods in modeling the tumor growth profiles in xenograft experiments. Clinical Cancer Res 17, 1057 (Mar. 1, 2011)) was used to characterize differences in tumor volumes and growth between treatments.
# Cells of Merkel cell polyomavirus (+) carcinoma cell lines MKL-1, MS-1, WaGa, and MKL-2 were checked for viability >90% by trypan blue staining, resuspended in PBS (2×10^7 cells in 100 μl) and inoculated subcutaneously into the right flank of mice.
# YM-155 was given intraperitoneally on five consecutive days, followed by a two-day treatment free interval. For YM155 this treatment continued for three weeks or until mice were euthanized. Mice were euthanized upon showing a tumor having a diameter of 20 mm, or upon a showing of significant distress (>20% weight loss or when they became moribund). Caliper measurements of the longest perpendicular tumor diameters were performed every other day and tumor volumes were calculated using the formula: (width)^2×(length/2). Survival was defined as time from the first day of treatment until death/sacrifice.
# [2] = tested on: MCV-negative MCC cell line; experiment: Cell-Titer Glo growth inhibition by YM155; format: cell-based, human; conditions: MCV-negative vs MCV-positive MCC cells
# Method: Serial drug dilutions from 10^−4 M to 10^−9 M were used on MCC and non-MCC cell lines. Cells were seeded into 384-well plates at 6000 cells in 50 μl of medium per well. After 24 hours, 25 μl of 3× drugs were added at increasing concentration to each well. Cell viability was then measured using Cell Titer Glo (Promega) kit following manufacturer's instructions as described previously. Each drug concentration was tested in triplicate for each cell line and experiments were repeated twice. EC50 doses for the drugs were calculated using a four parameter logistic equation (GraphPad Prism).
# [3] = tested on: MCV-negative UISO and MCC26; experiment: Cell-Titer Glo growth curves for YM155; format: cell-based, human; conditions: 48 h
# Text: (§1) Seven Merkel cell carcinoma cell lines: MKL-1, MKL-2, MS-1, UISO, MCC13, MCC26 and WaGa (kind gift of Jurgen Becker (Houben et al., Merkel cell polyomavirus-infected Merkel cell carcinoma cells require expression of viral T antigens. J Virol 84, 7064 (July, 2010); Ronan et al., Merkel cell carcinoma: in vitro and in vivo characteristics of a new cell line. J Am Acad Dermatol 29, 715 (November, 1993); Rosen et al., Establishment and characterization of a neuroendocrine skin carcinoma cell line. Lab Invest 56, 302 (March, 1987)); NCI-H69 small cell lung cancer cell line (ATCC); 293 human embryonic kidney cells (ATCC); U2OS osteosarcoma cell line (kind gift of Ole Gjoerup); BJhTERT immortalized foreskin fibroblast cell line (kind gift of Ole Gjoerup); and BJ primary foreskin fibroblasts (ATCC) were used to screen and evaluate the small molecules examined in this study (Houben et al., J Virol 84, 7064 (July, 2010); Ronan et al., J Am Acad Dermatol 29, 715 (November, 1993); Rosen et al., Lab Invest 56, 302 (March, 1987)). […]
# (§2) Serial drug dilutions from 10^−4 M to 10^−9 M were used on MCC and non-MCC cell lines. […] Cell viability was then measured using Cell Titer Glo (Promega) kit following manufacturer's instructions as described previously. […] EC50 doses for the drugs were calculated using a four parameter logistic equation (GraphPad Prism).
# [4] = tested on: MCV-negative MCC13, BJ and BJhTERT cells; experiment: Cell-Titer Glo growth curves for YM155; format: cell-based, human; conditions: 48 h
# Text: as §1, §2
# [5] = three weeks treatment, bortezomib 1 mg/kg twice weekly, YM155 2 mg/kg 5 times weekly
smiles,measurement,setting,value
"COCCn1c2c([n+](Cc3cnccn3)c1C)C(=O)c1ccccc1C2=O.[Br-] [YM155, 1-(2-methoxyethyl)-2-methyl-4,9-dioxo-3-(pyrazin-2-ylmethyl)-4,9-dihydro-1H-naphtho[2,3-d]imidazol-3-ium bromide]",survivin levels in xenograft tumors (qRT-PCR),survivin,Lower survivin levels
same,survival after initiation of treatment,"[1]; Example 2, 2 mg/kg for three weeks",almost two months
same,survival after treatment began,"[1]; Example 2, continuously at 4 mg/kg",more than three months
same,tumor growth after treatment was stopped,"[1]; after single 3-week course, 2 mg/kg",all tumors resumed growth once YM155 was stopped
same,tolerability / adverse effects in mice,"[1]; bortezomib 1 mg/kg twice weekly, YM155 2 mg/kg 5 times weekly",well-tolerated and no adverse effects or acute toxicities were noted
same,mice dying during treatment (up to day 19),[1]; [5],none
same,xenograft tumor growth / progression during treatment,[1]; [5],markedly delayed MKL-1 xenograft growth
same,"concentrations inhibiting MCV-negative MCC cell line growth, higher than for MCV-positive MCC cells",[2],1-2 orders of magnitude
same,"sensitivity to YM155, dose-dependent growth curves",[3],intermediate sensitivity
same,"sensitivity to YM155, dose-dependent growth curves",[4],relative resistance

# — patent US9662329B2, “Use of survivin antagonists in polyomavirus-related disease” (University of Pittsburgh—Of the Commonwealth System of …, priority 2012, dated 2017)
